# Experimental data taken from ChEMBL document CHEMBL1201862, “PubChem BioAssay data set” (2004).
#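 Exposure lasted 48 hours, with cells grown in 96-well plates and compounds tested at five concentrations. GI50 is the concentration that inhibits growth by half.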 Activity calls are given as the source filed them. Rule as the data show it: active = GI50 up to about 1.1 µM and inactive = higher.
# Key:
# Experiment in all cases: NCI-60 cell line screen, 48 h
# LOX IMVI = test system: LOX IMVI
# NCI-H522 = test system: NCI-H522
# NCI-H226 = test system: NCI-H226
# A549 = test system: A549
# KM-20L2 = test system: KM-20L2
# SF-268 = test system: SF-268
# EKVX = test system: EKVX
# SK-MEL-28 = test system: SK-MEL-28
# DMS-114 = test system: DMS-114
# ACHN = test system: ACHN
# K562 = test system: K562
# SNB-75 = test system: SNB-75
# NCI-H23 = test system: NCI-H23
# SF-295 = test system: SF-295
# SW-620 = test system: SW-620
# HCT-116 = test system: HCT-116
# UO-31 = test system: UO-31
# HL-60 = test system: HL-60
# HT-29 = test system: HT-29
# UACC-257 = test system: UACC-257
# A498 = test system: A498
# HCT-15 = test system: HCT-15
# SNB-78 = test system: SNB-78
# OVCAR-4 = test system: OVCAR-4
# LXFL 529 = test system: LXFL 529
# KM12 = test system: KM12
# RXF 631 = test system: RXF 631
# MOLT-4 = test system: MOLT-4
# CCRF-CEM = test system: CCRF-CEM
# XF498 = test system: XF498
# DMS-273 = test system: DMS-273
# U-251 = test system: U-251
# COLO 205 = test system: COLO 205
# IGROV-1 = test system: IGROV-1
# M19-MEL = test system: M19-MEL
# HOP-92 = test system: HOP-92
# SNB-19 = test system: SNB-19
# UACC-62 = test system: UACC-62
# RPMI-8226 = test system: RPMI-8226
# SF-539 = test system: SF-539
# CAKI-1 = test system: CAKI-1
# TK-10 = test system: TK-10
# OVCAR-8 = test system: OVCAR-8
# M14 = test system: M14
# DLD-1 = test system: DLD-1
# HOP-18 = test system: HOP-18
# OVCAR-3 = test system: OVCAR-3
# NCI-H460 = test system: NCI-H460
# RXF 393 = test system: RXF 393
# SK-OV-3 = test system: SK-OV-3
# OVCAR-5 = test system: OVCAR-5
# SN12C = test system: SN12C
# SK-MEL-5 = test system: SK-MEL-5
# BT-549 = test system: BT-549
# MDA-N = test system: MDA-N
# MDA-MB-435 = test system: MDA-MB-435
# HOP-62 = test system: HOP-62
# SK-MEL-2 = test system: SK-MEL-2
# SR = test system: SR
# Hs-578T = test system: Hs-578T
# PC-3 = test system: PC-3
# NCI/ADR-RES = test system: NCI/ADR-RES
# 786-0 = test system: 786-0
# MCF7 = test system: MCF7
# DU-145 = test system: DU-145
# MDA-MB-231 = test system: MDA-MB-231
# Malme-3M = test system: Malme-3M
# T47D = test system: T47D
# HCC 2998 = test system: HCC 2998
smiles,measurement,setting,value
CC(=O)N/C(=C\c1ccc(/C=C(\NC(C)=O)C2=NC3C(=O)c4ccccc4C(=O)C3N2)cc1)C1=NC2C(=O)c3ccccc3C(=O)C2N1 (stereo not given),GI50,LOX IMVI,6.92 µM (inactive)
same,GI50,NCI-H522,7.69 µM (inactive)
same,GI50,NCI-H226,15.4 µM (inactive)
same,GI50,A549,2.34 µM (inactive)
same,GI50,KM-20L2,39.7 µM (inactive)
same,GI50,SF-268,5.7 µM (inactive)
same,GI50,EKVX,15.6 µM (inactive)
same,GI50,SK-MEL-28,> 100 µM (inactive)
same,GI50,DMS-114,8 µM (inactive)
same,GI50,ACHN,4.1 µM (inactive)
same,GI50,K562,19.3 µM (inactive)
same,GI50,SNB-75,6.98 µM (inactive)
same,GI50,NCI-H23,26.7 µM (inactive)
same,GI50,SF-295,68.2 µM (inactive)
same,GI50,SW-620,1.84 µM (inactive)
same,GI50,HCT-116,14.4 µM (inactive)
same,GI50,UO-31,2.97 µM (inactive)
same,GI50,HL-60,3.96 µM (inactive)
same,GI50,HT-29,> 100 µM (inactive)
same,GI50,UACC-257,> 100 µM (inactive)
same,GI50,A498,5.57 µM (inactive)
same,GI50,HCT-15,9.14 µM
same,GI50,SNB-78,70.3 µM (inactive)
same,GI50,OVCAR-4,> 100 µM (inactive)
same,GI50,LXFL 529,42.4 µM (inactive)
same,GI50,KM12,3.63 µM (inactive)
same,GI50,RXF 631,19.7 µM (inactive)
same,GI50,MOLT-4,2.44 µM (inactive)
same,GI50,CCRF-CEM,0.865 µM (active)
same,GI50,XF498,> 100 µM (inactive)
same,GI50,DMS-273,19.6 µM (inactive)
same,GI50,U-251,9.98 µM (inactive)
same,GI50,COLO 205,93.1 µM (inactive)
same,GI50,IGROV-1,8.47 µM (inactive)
same,GI50,M19-MEL,92.3 µM (inactive)
same,GI50,HOP-92,30.8 µM (inactive)
same,GI50,SNB-19,19 µM (inactive)
same,GI50,UACC-62,25.8 µM (inactive)
same,GI50,RPMI-8226,5.05 µM (inactive)
same,GI50,SF-539,76.7 µM (inactive)
same,GI50,CAKI-1,3.27 µM (inactive)
same,GI50,TK-10,12.1 µM (inactive)
same,GI50,OVCAR-8,22.4 µM (inactive)
same,GI50,M14,49.8 µM (inactive)
same,GI50,DLD-1,7.71 µM (inactive)
same,GI50,HOP-18,71.3 µM (inactive)
same,GI50,OVCAR-3,49.3 µM (inactive)
same,GI50,NCI-H460,12.8 µM (inactive)
same,GI50,RXF 393,13.2 µM (inactive)
same,GI50,SK-OV-3,6.53 µM (inactive)
same,GI50,OVCAR-5,75 µM (inactive)
same,GI50,SN12C,22.6 µM (inactive)
same,GI50,SK-MEL-5,3.4 µM (inactive)
O=C(CCN1CCCCC1)N1CCc2c([nH]c3ccccc23)C1c1cccnc1 (stereo not given),GI50,BT-549,> 61.8 µM (inactive)
same,GI50,LOX IMVI,40.6 µM (inactive)
same,GI50,MDA-N,28.1 µM (inactive)
same,GI50,NCI-H522,35.3 µM (inactive)
same,GI50,NCI-H226,> 91.8 µM (inactive)
same,GI50,A549,> 93.3 µM (inactive)
same,GI50,MDA-MB-435,35.5 µM (inactive)
same,GI50,KM-20L2,30.1 µM (inactive)
same,GI50,SF-268,61.4 µM (inactive)
same,GI50,EKVX,52.7 µM (inactive)
same,GI50,HOP-62,> 82.2 µM (inactive)
same,GI50,SK-MEL-28,19.5 µM (inactive)
same,GI50,DMS-114,27.9 µM (inactive)
same,GI50,SK-MEL-2,18.3 µM (inactive)
same,GI50,ACHN,> 85.5 µM (inactive)
same,GI50,K562,30.8 µM (inactive)
same,GI50,SNB-75,58.3 µM (inactive)
same,GI50,NCI-H23,> 100 µM (inactive)
same,GI50,SF-295,37.5 µM (inactive)
same,GI50,SR,41.5 µM (inactive)
same,GI50,SW-620,> 94 µM (inactive)
same,GI50,Hs-578T,66.4 µM (inactive)
same,GI50,HCT-116,61.8 µM (inactive)
same,GI50,UO-31,38.3 µM (inactive)
same,GI50,HL-60,41.2 µM (inactive)
same,GI50,PC-3,57 µM (inactive)
same,GI50,HT-29,32.4 µM (inactive)
same,GI50,UACC-257,17.5 µM (inactive)
same,GI50,A498,30.5 µM (inactive)
same,GI50,HCT-15,85.5 µM
same,GI50,NCI/ADR-RES,> 100 µM (inactive)
same,GI50,SNB-78,> 86.7 µM (inactive)
same,GI50,OVCAR-4,> 91 µM (inactive)
same,GI50,LXFL 529,20.9 µM (inactive)
same,GI50,KM12,> 100 µM (inactive)
same,GI50,RXF 631,31 µM (inactive)
same,GI50,MOLT-4,47.1 µM (inactive)
same,GI50,786-0,38.6 µM (inactive)
same,GI50,CCRF-CEM,57.4 µM (inactive)
same,GI50,XF498,21.2 µM (inactive)
same,GI50,MCF7,99.3 µM (inactive)
same,GI50,DMS-273,39.8 µM (inactive)
same,GI50,U-251,80 µM (inactive)
same,GI50,DU-145,> 100 µM (inactive)
same,GI50,COLO 205,21.7 µM (inactive)
same,GI50,IGROV-1,> 92 µM (inactive)
same,GI50,M19-MEL,21.2 µM (inactive)
same,GI50,MDA-MB-231,34.1 µM (inactive)
same,GI50,Malme-3M,20.8 µM (inactive)
same,GI50,T47D,64.1 µM (inactive)
same,GI50,HOP-92,29.7 µM (inactive)
same,GI50,SNB-19,> 100 µM (inactive)
same,GI50,UACC-62,20.7 µM (inactive)
same,GI50,RPMI-8226,39.7 µM (inactive)
same,GI50,SF-539,61.4 µM (inactive)
same,GI50,CAKI-1,> 73.6 µM (inactive)
same,GI50,TK-10,68.9 µM (inactive)
same,GI50,HCC 2998,28 µM (inactive)
same,GI50,OVCAR-8,69.3 µM (inactive)
same,GI50,M14,22.9 µM (inactive)
same,GI50,DLD-1,48.4 µM (inactive)
same,GI50,HOP-18,> 100 µM (inactive)
same,GI50,OVCAR-3,> 100 µM (inactive)
same,GI50,NCI-H460,73.1 µM (inactive)
same,GI50,RXF 393,28.7 µM (inactive)
same,GI50,SK-OV-3,> 100 µM (inactive)
same,GI50,OVCAR-5,> 73.3 µM (inactive)
same,GI50,SN12C,> 81.5 µM (inactive)
same,GI50,SK-MEL-5,21.3 µM (inactive)
CC(CN(C)C)C(=O)c1ccccc1 (stereo not given),GI50,LOX IMVI,14.9 µM (inactive)
same,GI50,NCI-H522,2.04 µM (inactive)
same,GI50,NCI-H226,> 100 µM (inactive)
same,GI50,A549,> 65.3 µM (inactive)
same,GI50,KM-20L2,> 51.8 µM (inactive)
same,GI50,SF-268,30.3 µM (inactive)
same,GI50,EKVX,> 50.7 µM (inactive)
same,GI50,HOP-62,> 100 µM (inactive)
same,GI50,SK-MEL-28,> 41.7 µM (inactive)
same,GI50,DMS-114,26.6 µM (inactive)
same,GI50,SK-MEL-2,22.7 µM (inactive)
same,GI50,ACHN,24.8 µM (inactive)
same,GI50,K562,5.02 µM (inactive)
same,GI50,SNB-75,> 83.9 µM (inactive)
same,GI50,NCI-H23,24.9 µM (inactive)
same,GI50,SF-295,> 100 µM (inactive)
same,GI50,SR,19.6 µM (inactive)
same,GI50,SW-620,12.9 µM (inactive)
same,GI50,HCT-116,28.8 µM (inactive)
same,GI50,UO-31,> 31.6 µM (inactive)
same,GI50,HL-60,15.9 µM (inactive)
same,GI50,HT-29,20 µM (inactive)
same,GI50,UACC-257,> 48.6 µM (inactive)
same,GI50,A498,> 46.1 µM (inactive)
same,GI50,HCT-15,16.6 µM
same,GI50,SNB-78,31 µM (inactive)
same,GI50,OVCAR-4,> 41.1 µM (inactive)
same,GI50,LXFL 529,18 µM (inactive)
same,GI50,KM12,18.2 µM (inactive)
same,GI50,RXF 631,> 86.3 µM (inactive)
same,GI50,MOLT-4,8.22 µM (inactive)
same,GI50,786-0,22.6 µM (inactive)
same,GI50,CCRF-CEM,3.78 µM (inactive)
same,GI50,XF498,21.3 µM (inactive)
same,GI50,DMS-273,> 100 µM (inactive)
same,GI50,U-251,> 100 µM (inactive)
same,GI50,COLO 205,31.6 µM (inactive)
same,GI50,IGROV-1,> 100 µM (inactive)
same,GI50,M19-MEL,19.1 µM (inactive)
same,GI50,Malme-3M,24.3 µM (inactive)
same,GI50,HOP-92,2.33 µM (inactive)
same,GI50,SNB-19,> 77.3 µM (inactive)
same,GI50,UACC-62,35.8 µM (inactive)
same,GI50,RPMI-8226,0.94 µM (active)
same,GI50,SF-539,51.8 µM (inactive)
same,GI50,CAKI-1,3.43 µM (inactive)
same,GI50,TK-10,> 100 µM (inactive)
same,GI50,HCC 2998,26.6 µM (inactive)
same,GI50,OVCAR-8,31.6 µM (inactive)
same,GI50,M14,24.7 µM (inactive)
same,GI50,DLD-1,8.97 µM (inactive)
same,GI50,HOP-18,> 100 µM (inactive)
same,GI50,OVCAR-3,42.4 µM (inactive)
same,GI50,NCI-H460,> 78.7 µM (inactive)
same,GI50,RXF 393,22.8 µM (inactive)
same,GI50,OVCAR-5,32.3 µM (inactive)
same,GI50,SN12C,17.6 µM (inactive)
same,GI50,SK-MEL-5,> 82.4 µM (inactive)
